The results in this text go back to patent US20190008864A1, “PHARMACEUTICAL COMPOSITION CONTAINING GPR119 LIGAND AS EFFECTIVE INGREDIENT FOR PREVENTING OR TREATING NON-ALCOHOLIC STEATOHEPATITIS” (PHARMEDIX.CO., LTD., priority 2014, published 2019).

The subject of one test is SREBP-1c. Description: SREBP-1C expression in HepG2 under high glucose/insulin with GPR119 ligand plus AMPK or PKA inhibitor. It counts as cell-based, human. On the procedure: (§1) Sodium dodecyl sulfate-polyacrylamide gel electrophoresis (SDS-PAGE) was carried out by means of a gel electrophoresis device (Mighty Small SE 250, Hoefer Scientific Instruments, San Francisco) according to a method by Laemmli (UK, Nature 227, 680-685, 1970). Each of cell lysate fractions was diluted with a buffer solution for sample dilution [63 mM Tris (pH. 6.8), 10% glycerol, 2% SDS, 0.0013% bromophenol blue, and 5% β-mercaptoethanol], and then electrophoresed on a 8% or 10% gel in an electrode buffer solution (1 l of the solution contained 15 g of Tris, 72 g of glycerin, and 5 g of SDS). […] Whether total protein contents in samples are the same is determined using anti-β-actin and anti-LaminA/C antibodies. Changes in protein expression amounts were determined by measuring the intensities of chemiluminescence signals on the blot by means of densitometry. […] Each lane was calculated using AlphaEase™ version 5.5 software and background intensity was removed from the calculated values. […]
An experiment therefor was performed as follows. […] Protein expression change was measured using the western blotting method of the method D.

The test system of another test is SCD-1 mRNA. The experiment in a line: SCD-1 mRNA expression after T0901317 treatment, HepG2 (real time PCR). Type of test: cell-based, human. Conditions: 10 μM T0901317 alone. On the procedure:
(§2) A 6-well plate was inoculated with HepG2 (ATCC, US), as a human hepatocyte line, and cultured until confluence in a DMEM medium containing 1% penicillin-streptomycin (Hyclone, US) and 10% fetal bovine serum (Hyclone, US) in a 5% CO2 incubator at 37° C. The medium containing 10% fetal bovine serum of the hepatocyte line grown to confluence was replaced by a medium not containing FBS. The cell line was additionally cultured for 18 hours and used as a sample for an experiment.
(§3) 1 ml of a TRIzol solution was added to each of cell samples to lyse the cells. Subsequently, centrifugation was carried out at 4° C. and 12,000×g for 10 minutes. […]
(§4) A supernatant was transferred to a new tube and then isopropanol was added thereto in the same amount as the supernatant. […] The concentration of an extracted RNA sample was measured at wavelengths of 260 nm and 280 nm by means of a UV/VIS spectrum analyzer (Nanodrop, Thermo, US) and cDNAs were synthesized therefrom using an RT kit. […]
(§5) A medium containing the GPR119 ligand (MBX-2982, GSK-1292263A) was added to a human hepatocyte line (HepG2) cultured as in the method C and, 30 minutes later, the cell line was treated with 10 μM T0901317 for nine hours. […] To investigate mRNA expression change in SCD-1 and FAS, RNAs were isolated and cDNAs were synthesized therefrom as in the method E. mRNA expression levels were measured using real time-PCR as in the method F.

Test [1] relates to SREBP-1c protein. Description: SREBP-1c expression after T0901317 treatment, HepG2 (western blot). To be noted: 10 μM T0901317 alone, nine hours, compared to no treatment. It counts as cell-based, human. How it is done: as §2
as §1, with “1970).” for “1970). Each of cell lysate fractions was diluted with a buffer solution for sample dilution [63 mM Tris (pH. 6.8), 10% glycerol, 2% SDS, 0.0013% bromophenol blue, and 5% β-mercaptoethanol], and then electrophoresed on a 8% or 10% gel in an electrode buffer solution (1 l of the solution contained 15 g of Tris, 72 g of glycerin, and 5 g of SDS).”
(A western blot detects proteins with antibodies after separation by electrophoresis.)

The test system of another test is FAS mRNA. The experiment in a line: FAS mRNA expression after T0901317 treatment, HepG2 (real time PCR). Type of test: cell-based, human. To be noted: 10 μM T0901317 alone. On the procedure: as §2, §3, §4, §5
Test [2] has as its system SREBP-1c protein. Description: SREBP-1c expression after T0901317 treatment, primary hepatocytes (western blot). It counts as cell-based, mouse. To be noted: 10 μM T0901317 alone, nine hours, compared to no treatment.
Experimental: Liver cells were collected from male C57BL/6 mice (Central Lab. Animal Inc., Seoul) according to a method by Seglen et al. (Exp Cell Res., 82, pp 391-398, 1973). Each C57BL/6 mouse was anesthetized and then the abdomen thereof was incised. Subsequently, the hepatic portal vein was intubated and a gas mixture of 5% CO2 and 95% O2 was insufflated thereinto. A Ca^2+ and Mg^2+-free Hank's balanced salt solution at 37° C. was flowed into the tube to remove blood in the liver. Subsequently, a 0.1% collagenase type IV (Sigma, US) solution was flowed thereinto. The liver tissue was removed from the body, and then prepared into a hepatocyte suspension. The prepared hepatocyte suspension was centrifuged at 50×g for two minutes. […]
Sodium dodecyl sulfate-polyacrylamide gel electrophoresis (SDS-PAGE) was carried out by means of a gel electrophoresis device (Mighty Small SE 250, Hoefer Scientific Instruments, San Francisco) according to a method by Laemmli (UK, Nature 227, 680-685, 1970). […] Whether total protein contents in samples are the same is determined using anti-β-actin and anti-LaminA/C antibodies. Changes in protein expression amounts were determined by measuring the intensities of chemiluminescence signals on the blot by means of densitometry. […] Each lane was calculated using AlphaEase™ version 5.5 software and background intensity was removed from the calculated values. […]
For test [3], the system named is fatty liver model induced by a high-fat diet. Description: Fatty liver model induced by high-fat diet. It counts as in vivo, C57BL/6J mice. Conditions: animal models fed with a high-fat diet. An excerpt:
In the present invention, a high fat diet (HFD: 60% fat calories, Research diets, D12492, US) was used as an obesity induction diet.
Six-week-old male C57BL/6J mice (Central Lab. Animal Inc., Seoul, Korea) were acclimated to an experimental environment for one week while being fed solid food, and then randomly divided into a control group and an experimental group for a high-fat diet using a randomized block design. The animal groups were fed for 12 weeks, and thus, fatty liver animal models were established. Fatty liver development was determined according to blood biochemical and histochemical analysis methods. The mice were orally fed with the high-fat diet only for six weeks, and in combination with a GPR119 ligand (10 mg/kg) suspended in 40% PEG400 once a day for five days every week. Choline-deficient, amino acid-fixed high-fat diet steatohepatitis models were prepared by feeding six-week-old male C57BL/6J mice (Central Lab. Animal Inc., Seoul) with a diet containing 60 kcal fat and 0.1% methionine for four weeks. After terminating the experiment, experimental animals fasted for 12 hours or more. Subsequently, blood, liver, and adipose tissues in intestines (epididymal fat, kidney-surrounding fat) were collected from the animals that had been anesthetized with diethyl ether and then washed with a 0.1 M phosphate buffered saline (pH 7.4), followed by being weighed. Blood collected from abdominal aortas was centrifuged at 3000 rpm for 20 minutes using SST tubes to separate serum.
A total cholesterol concentration and a total glucose concentration in serum from each of the aforementioned experimental animals raised for 12 weeks were measured as follows. Each of the total cholesterol concentration and the total glucose concentration in serum was measured twice by means of a commercial measurement kit (Bio Clinical Systems). The amount of alanine aminotransferase (ALT) in blood used as a liver function index was measured by means of a commercial analysis kit (Bio Clinical Systems, Korea).
The collected liver tissues were fixed with a 10% neutral formalin solution and then subjected to a common fixation procedure and dehydration process, followed by embedding the same in paraffin. The embedded tissues were sectioned to a thickness of 4 μm and stained with H&E. The stained tissues were observed by means of an optical microscope.
A predetermined amount of each of the liver tissues was homogenized in liquid nitrogen and a cell lysis buffer in a mortar, and then a lysed tissue solution was transferred to a new tube, followed by vortexing. […] A middle layer of the centrifuged solution was collected and then subjected to protein quantification by the Bradford assay. […] Expression changes of FAS and SREBP-1c proteins were measured by western blotting. […]

Test [4] concerns mouse liver tissue and hepatocyte line. The experiment in a line: Summary statement: mouse liver tissue and hepatocyte line treated with the two GPR119 ligands. It counts as cell-based.

Consider `c1cc(-c2cnn3cc(-c4ccc(OCCN5CCCCC5)cc4)cnc23)ccn1` [Compound C], for which the “SREBP-1C expression inhibition due to MBX2982 upon AMPK inhibitor treatment” value in the test on SREBP-1c (3 μM MBX2982 plus Compound C) is reported as “recovered”.
Take `O=S(=O)(c1ccccc1)N(CC(F)(F)F)c1ccc(C(O)(C(F)(F)F)C(F)(F)F)cc1` [T0901317, N-(2,2,2-Trifluoroethyl)-N-[4-[2,2,2-trifluoro-1-hydroxy-1-(trifluoromethyl)ethyl]phenyl]benzenesulfonamide]: the “mRNA expression level of SCD-1” value in the test on SCD-1 mRNA is “increased”. In addition, the “expression level of SREBP-1c” value in the test on SREBP-1c protein [1] and in the test on SREBP-1c protein [2] was “greatly increases” in each case. In addition, in the test with FAS mRNA, the “mRNA expression level of FAS” value was “increased”.
With `CC(C)c1noc(N2CCC(COc3ccc(-c4ccc(S(C)(=O)=O)cc4)nc3)CC2)n1` [GSK1292263, 3-isopropyl-5-(4-(((6-(4-(methylsulfonyl)phenyl)pyridin-3-yl)oxy)methyl)piperidin-1-yl)-1,2,4-oxadiazole], the fatty liver development result in test [3] is listed as “completely inhibited”. In test [4], the “activity of SREBP-1c” value is recorded as “inhibited”, the “expression of GPR119” value is reported as “increased”, the “expression of acetyl CoA carboxylase (ACC)” value is “inhibited” and the “expression of fatty acid synthase (FAS)” value is “inhibited”. In test [4], the “expression of stearoyl-CoA desaturase (SCD)” value is “inhibited”.
Regarding `O=S(=O)(NCCNC/C=C/c1ccc(Br)cc1)c1cccc2cnccc12` [H-89], the “function of the GPR119 ligand affecting SREBP-1C upon PKA inhibitor treatment” value in the test on SREBP-1c (3 μM GPR119 ligand plus H-89) is reported as “not affected”.
